By IC50 is commonly meant the concentration at which inhibition is half-maximal. Read a low IC50 as inhibition by little substance.

The nature of this test: Inhibition of pERK (unknown origin).

Regarding `CC(=O)N1CCN(c2ccc(Nc3nccc(-c4sc(C(C)C)nc4-c4cccc(NS(=O)(=O)c5ccccc5)c4)n3)cn2)CC1`, 7 nM corresponded to half-maximal inhibition (IC50).

Values taken from BindingDB's records for PubMed 39128361 (Xi'an Jiaotong University).
